Key:
KB cells [1] = experiment: Inhibition of cell growth by XTT assay; assay type: cell-based, human; settings: 1, 2 or 3 days
Experimental: Cell culture and treatment.
Evaluation of dendrimer cytotoxicity.
Because the binding of the conjugate to KB cells reaches maximal uptake within 1 h (Quintana et al, 2002. Pharmaceutical Research 19: 1310-1316.), the effect of the G5-FI-FA-MTX on cell growth was initially tested by pre-incubation of cells with the conjugate for 1 h, followed by incubation in a drug-free medium for 5 d. […] When the cells were pre-incubated with dendrimers for 4 h, there was a modest decrease of about 10% in cell growth as determined by XTT assay. The cytotoxicity measurements were therefore done by incubation with the dendrimer for a minimum of 24 h, a pre-incubation time period shown to induce significant cytotoxicity.
The inhibition of cell growth induced by the conjugates was also tested by XTT assay which is based on the conversion of XTT to formazan by the active mitochondria of live cells (See, e.g., Roehm et al, J Immunol Methods 142, 257 (1991)).
As free FA blocks the uptake of the dendrimers as well as rescues cells from MTX-induced cytotoxicity, the effect of pre-incubation of cells with excess FA on the anti-proliferative effect of G5-FITC-FA-MTX was tested. KB cells were exposed to different concentrations of the conjugate or free MTX for 24 h in the absence or presence of 50 μM FA. The incubation medium was removed, the cells were rinsed and incubated with fresh medium for 5 additional days in the absence of the drugs, and the XTT assay was performed (See, e.g., FIG. 24, □, ▪, represents cells treated with MTX; Δ, ▴, represents cells treated with G5-FITC-FA-MTX).
The anti-proliferative effect of the MTX-conjugates was compared to conjugates that lacked either the FA or the FITC molecule. KB cells were incubated with 30 nM of the conjugates (=150 nM effective MTX concentration) for 24 h and the incubation medium was removed. The cells were rinsed and incubated for an additional 5 d in fresh medium in the absence of the drugs, and the XTT assay was performed.

s.c. human KB xenografts = experiment: Targeted drug delivery, tumor growth and survival in SCID mice with KB xenografts; assay type: in vivo, SCID CB-17 mice; settings: for effect on tumor growth: first trial
Experimental: Recipient animal and tumor model.
(§1) Delivery of targeted nanoparticle therapeutic. Twice weekly, SCID mice with s.c. KB xenografts, starting on day 4 after tumor implantation, received via the tail vein an injection of either targeted or nontargeted conjugate containing methotrexate, a conjugate without methotrexate, free methotrexate, or saline as a control. The compounds were delivered in a 0.2 mL volume of saline per 20 g of mouse. The single dose of methotrexate delivered each time equaled 0.33 mg/kg. The higher doses of 1.67 and 3.33 mg/kg free methotrexate were also tested. The conjugates were delivered at equimolar concentration of methotrexate calculated based on the number of methotrexate molecules present in a nanoparticle. The conjugate without methotrexate was delivered at equimolar concentration of dendrimer. In the initial trial, six groups of mice with five mice in each group received up to 15 injections. In the follow-up trial, mice received up to 28 injections dependent on their survival. The body weights of the mice were monitored throughout the experiment as an indication of adverse effects of the drug. Histopathology of multiple organs was done at the termination of each trial and each time mouse had to be euthanized due to toxic effects or tumor burden. Tissues from lung, heart, liver, pancreas, spleen, kidney, and tumor were analyzed. Additionally, cells were isolated from tumors, stained with targeted fluorescein-labeled conjugate, and tested for the presence of folic acid receptors using flow cytometer.
Targeted drug delivery to tumor cells through the folate receptor. The efficacy of different doses of conjugates was tested on SCID CB-17 mice bearing s.c. human KB xenografts and was compared with equivalent and higher doses of free methotrexate. Mice were maintained on the folic acid-deficient diet for 3 weeks before injection of the KB tumor cells to achieve circulating levels of folic acid that approach those in human serum and to prevent down-regulation of folate receptors on tumor xenografts (See, Mathias et al., J Nucl Med 29, 1579 (1998)). Six groups of SCID mice with five mice in each group were injected s.c. on one flank with 5×10^6 KB cells in 0.2 mL PBS suspension. The highest total dose of G5-FI-FA-MTX therapeutic used equals 55.0 mg/kg and is equivalent to a 5.0 mg/kg total cumulative dose of free methotrexate (FIG. 29). The therapeutic dose of the conjugate was compared with three cumulative doses of free methotrexate equivalent to 33.3, 21.7, and 5.0 mg/kg accumulated in 10 to 15 injections based on mouse survival. Saline and the conjugate without methotrexate (G5-FI-FA) were used as controls.

KB cells [2] = experiment: Inhibition of cell growth by total cell protein
Experimental: Cell culture and treatment. KB cells were maintained in folate-free medium containing 10% serum (See, e.g., Quintana et al, Pharm. Res. 19, 1310 (2002)) to provide extracellular FA similar to that found in human serum. Cells were plated in 12-well plates for uptake studies, in 24-well plates for cell growth analysis, and in 96-well plates for XTT assay. Cells were rinsed with FA-free medium containing dialyzed serum and incubated at 37° C. with dendrimer-drug conjugates for the indicated time periods and concentrations. KB cells were also maintained in RPMI medium containing 2 μM FA to obtain cells which express low FAR.
Evaluation of dendrimer cytotoxicity. Cell growth was determined by assay of the total protein in lysates of treated cells using a bicinchoninic acid reagent (PIERCE, and by XTT assay, using a kit from Roche.
Time course and dose dependent inhibition of cell growth. Previous studies have shown that MTX-induced cytotoxicity is detectable in vitro only if the medium is completely deprived of FA (See, e.g., Sobrero & Bertino, Int. J. Cell Cloning 4, 51 (1986)). The effect of the trifunctional dendrimers on cell growth was tested in cells incubated in a FA-deficient medium. Cells were treated with 300 nM conjugates (equivalent of 1500 nM MTX) or 1500 nM free MTX for 1-4 days, and cell proliferation was determined by estimation of cellular protein content. Cells were treated for 2 days with different concentrations of the conjugates or free MTX (the conjugate concentration is given as MTX equivalents, with 5 MTX per dendrimer molecule). KB cells which express high and low FAR were incubated with 30 nM of the dendrimers for 1 hr at 37° C., rinsed, and the fluorescence of cells was determined by flow cytometric analysis (See. e.g., FIG. 21, left panel).
KB cells were treated with 150 or 500 nM MTX in the presence or absence of equimolar concentrations of free FA for 24 h. […] The cells were rinsed to remove the drugs and incubated with fresh medium for an additional 6 d, and total cell protein was determined.

[3] = Toxicity of dendrimer conjugates and free methotrexate in mice (body weight, histopathology); assay type: in vivo
Experimental: as §1
Toxicity of dendrimer conjugates. […] No gross toxicity, either acutely or chronically up to 99 days, was observed regardless of whether the dendrimer conjugate contained methotrexate. The weight was monitored throughout the experiment and no loss of weight was observed; in fact, the animals gained weight. At each time point, a gross examination and histopathology of the liver, spleen, kidney, lung, and heart were done. No morphologic abnormalities were observed on the histopathology examination.
The remaining experimental groups had very uniform body weight fluctuations nonindicative of toxicity when compared with control groups with saline or conjugate without methotrexate.

KB tumor = experiment: Biodistribution of fluorescent dendrimer conjugates in tumor (confocal microscopy, flow cytometry); assay type: in vivo, mice; settings: single-cell suspension from tumors, versus nontargeted
Experimental: Biodistribution of fluorescent dendrimer conjugates. […] Flow cytometry analysis was done with single-cell suspension isolated from tumor. Tumor was crushed, cell suspension filtered through 70 μm nylon mesh (Becton Dickinson, Franklin Lakes, N.J.), and washed with in PBS. Samples were analyzed using an EPICS XL flow cytometer (Coulter, Miami, Fla.). As determined by prior propidium iodine staining, only live cells were gated for analysis. Data were reported as the mean channel fluorescence of the cell population.
For confocal microscope imaging, tissue was dissected, embedded in OCT, and frozen in 2-methyl-butane in a dry ice bath. Sections (15 μm) were cut on a cryostat, thaw mounted onto slides, and stored at −80° C. until stained. After staining, the slides were fixed in 4% paraformaldehyde, rinsed in phosphate buffer (0.1 mol/L; pH 7.2), and mounted in Prolong. The images were acquired using a Zeiss 510 metalaser scanning confocal microscope equipped with a ×40 Plan-Apo 1.2 numerical aperture (water immersion) objective with a correction collar. The confocal image was recorded as 512×512×48 pixels with a scale of 0.45×0.45×0.37 μm per pixel. Each image cube was optically cut into 48 sections, and the sections that cut through the nucleus and cytoplasm were presented.
Targeting and internalization of fluorescent dendrimer conjugate. […]

Molecule	inhibition of cell growth, XTT (KB cells [1])	effect on tumor growth (s.c. human KB xenografts; up to 15 injections, cumulative 5.0 mg/kg methotrexate equivalents or equimolar dendrimer)	effect on tumor growth (s.c. human KB xenografts; cumulative 33.3 and 21.7 mg/kg)	day by which all mice died (s.c. human KB xenografts; second 99-day trial) [days]	survivors at the termination of the trial (s.c. human KB xenografts; second 99-day trial)	inhibition of cell growth (FIGS. 21 and 22) (KB cells [2]; FA-deficient medium, 1-4 days, different concentrations)	growth inhibition, free MTX versus equimolar MTX in G5-FITC-FA-MTX (KB cells [2]; below 1 μM)	time at which doses became lethal ([3]; cumulative doses 33.3 and 21.7 mg/kg) [days]	histopathology of the liver ([3]; mouse, in vivo)	toxicity ([3]; total accumulated dose equivalent to 5.0 mg/kg free methotrexate)	mean channel fluorescence of tumor cells, flow cytometry (KB tumor)
CN(Cc1cnc2nc(N)nc(N)c2n1)c1ccc(C(=O)N[C@@H](CCC(=O)O)C(=O)O)cc1 [MTX, Methotrexate, reference compound]	time-dependent cytotoxicity	no effect on tumor growth	affecting tumor growth	≤ 66	no mice surviving	inhibited cell growth in a time- and dose-dependent fashion	higher	32 to 36	advanced liver lesions, collections of inflammatory cells, and periportal inflammation	nor free methotrexate at the same dose were toxic	
G5-(Ac)82-(6-TAMRA)3-(FA)4 [G5-6T-FA]											higher

— patent US20090104119A1, “Dendrimer Based Compositions And Methods Of Using The Same” (priority 2004, published 2009)
